From patent publication US6699854B2, “Anti-cancer compounds” (Cyclacel Limited, priority 2000, dated 2004)
“Also recorded” adds a separate entry of the source. Like-named read-outs stand apart in the source and are kept apart here.

Tests used:
[1] = target: T1, CDK2/cyclin E (Homo sapiens, UniProt P24941); test: CDK2/cyclin E kinase assay (GST-Rb phosphorylation); type: biochemical;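 note: enzyme source: His-tagged CDK2/cyclin E co-expressed in Sf9 insect cells via baculovirus, then purified by metal-chelate chromatography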
T1 construct: His; made in house; host or cells: Sf9 insect cells (baculovirus)

[2] = test system: A549; test: 72-h MTT cytotoxicity assay, A549; type: cell-based, human; settings: Homo sapiens
Experimental: (§1) Selected compounds from the above examples were subjected to a standard cellular proliferation assay using a range of different human tumour cell lines. Standard 72-h MTT (thiazolyl blue; 3-{4,5-dimethylthiazol-2-yl}-2,5-diphenyltetrazolium bromide) assays were performed (Haselsberger, K.; Peterson, D. C.; Thomas, D. G.; Darling, J. L. Anti Cancer Drugs 1996, 7, 331-8; Loveland, B. E.; Johns, T. G.; Mackay, I. R.; Vaillant, F.; Wang, Z. X.; Hertzog, P. J. Biochemistry International 1992, 27, 501-10). Human tumour cell lines were obtained from the ATCC (American Type Culture Collection, 10801 University Boulevard, Manessas, Va. 20110-2209, USA).

[3] = target: T2, CDK1/cyclin B (Homo sapiens, UniProt P06493); test: CDK1/cyclin B kinase assay (GST-Rb phosphorylation); type: biochemical; settings: Table 1
T2 construct: His; made in house; host or cells: Sf9 insect cells (baculovirus)
T2 sequence (P06493 whole entry, species assumed): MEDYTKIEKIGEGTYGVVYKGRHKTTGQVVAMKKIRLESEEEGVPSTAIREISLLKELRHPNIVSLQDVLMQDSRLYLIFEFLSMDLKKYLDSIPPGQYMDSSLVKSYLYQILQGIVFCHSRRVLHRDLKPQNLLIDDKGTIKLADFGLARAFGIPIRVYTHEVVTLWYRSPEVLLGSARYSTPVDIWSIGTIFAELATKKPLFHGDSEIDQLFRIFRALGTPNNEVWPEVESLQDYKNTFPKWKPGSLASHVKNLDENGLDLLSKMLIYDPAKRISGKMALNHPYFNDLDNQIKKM
T2 sequence (P14635 whole entry partner, species assumed): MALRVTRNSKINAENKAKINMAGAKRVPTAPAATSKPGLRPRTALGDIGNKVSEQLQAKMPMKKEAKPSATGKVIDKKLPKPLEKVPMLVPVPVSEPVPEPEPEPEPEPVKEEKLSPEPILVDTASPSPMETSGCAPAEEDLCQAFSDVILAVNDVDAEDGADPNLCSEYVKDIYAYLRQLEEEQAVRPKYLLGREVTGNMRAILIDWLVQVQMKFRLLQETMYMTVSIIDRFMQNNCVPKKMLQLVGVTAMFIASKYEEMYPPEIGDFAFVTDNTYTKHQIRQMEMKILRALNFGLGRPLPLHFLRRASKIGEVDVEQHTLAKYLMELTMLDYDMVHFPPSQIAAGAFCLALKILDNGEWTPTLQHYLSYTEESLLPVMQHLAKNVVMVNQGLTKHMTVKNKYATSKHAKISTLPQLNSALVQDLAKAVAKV

[4] = target: ERK-2 (Homo sapiens, UniProt P28482); test: ERK-2 kinase assay (kinase panel); type: biochemical; settings: Table 1
ERK-2, sequence (P28482 whole entry, species assumed): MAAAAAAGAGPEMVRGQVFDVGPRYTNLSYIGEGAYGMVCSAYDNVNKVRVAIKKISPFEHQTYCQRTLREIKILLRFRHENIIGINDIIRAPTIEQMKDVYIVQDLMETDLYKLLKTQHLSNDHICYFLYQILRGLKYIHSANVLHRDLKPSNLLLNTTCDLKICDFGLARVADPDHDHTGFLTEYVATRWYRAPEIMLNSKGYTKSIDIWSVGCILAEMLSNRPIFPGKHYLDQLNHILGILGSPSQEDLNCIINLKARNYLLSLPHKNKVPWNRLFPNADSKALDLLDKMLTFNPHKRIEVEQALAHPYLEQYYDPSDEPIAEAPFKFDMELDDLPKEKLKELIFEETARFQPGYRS

[5] = target: T3, PKCa (Homo sapiens, UniProt P17252); test: PKCα kinase assay (Histone 3 phosphorylation); type: biochemical; settings: Table 1
T3 construct: 6×His (C); made in house; host or cells: Sf9 insect cells (baculovirus)
Experimental: PKCα kinase activity may be measured by the incorporation of radio-labeled phosphate in Histone 3, as described. The reaction mixture (total volume 65 μl) consist of 50 mM Tris-HCl, 1 mM Calcium acetate, 3 mM DTT, 0.03 mg/ml Phosphatidylserine, 2.4 μg/ml PMA, 0.04% NP40, 12 mM Mg/Cl, purified PKCα-100 ng, Histone 3, 0.2 mg/ml, 100 μM ATP, 0.2 μCi {γ-^32P}-ATP. The reaction is carried over 15 min at 37° C. in microplate shaker and is stopped by adding 10 μl 75 mM orthophosphoric acid and placing the plate on ice. 50 μl of the reaction mixture is transferred onto P81 filterplate and after washing off the free radioactive phosphate (3 times with 200 μl 75 mM orthophosphoric acid per well) 50 μl of scintillation liquid (Microscint 40) were added to each well and the radioactivity is measured on Scintillation counter (Topcount, HP).

[6] = target: SAPK2a (Homo sapiens, UniProt Q16539); test: SAPK2a kinase assay (kinase panel); type: biochemical; settings: Table 1
SAPK2a, sequence (Q16539 whole entry, species assumed): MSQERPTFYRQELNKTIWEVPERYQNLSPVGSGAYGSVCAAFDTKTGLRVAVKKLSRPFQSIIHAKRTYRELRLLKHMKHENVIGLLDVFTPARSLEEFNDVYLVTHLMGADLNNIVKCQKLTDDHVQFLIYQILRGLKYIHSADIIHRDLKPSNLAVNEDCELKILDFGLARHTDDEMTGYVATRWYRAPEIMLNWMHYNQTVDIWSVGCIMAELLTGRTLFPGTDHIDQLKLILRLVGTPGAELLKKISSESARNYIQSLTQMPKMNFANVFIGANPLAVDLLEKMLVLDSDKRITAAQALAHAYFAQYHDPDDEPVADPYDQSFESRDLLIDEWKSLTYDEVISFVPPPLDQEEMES

[7] = target: S6; test: S6 kinase assay (kinase panel); type: biochemical; settings: Table 1
[8] = target: CDK4/cyclin D1 (Homo sapiens, UniProt P11802); test: biochemical
CDK4/cyclin D1, sequence (P11802 whole entry, species assumed): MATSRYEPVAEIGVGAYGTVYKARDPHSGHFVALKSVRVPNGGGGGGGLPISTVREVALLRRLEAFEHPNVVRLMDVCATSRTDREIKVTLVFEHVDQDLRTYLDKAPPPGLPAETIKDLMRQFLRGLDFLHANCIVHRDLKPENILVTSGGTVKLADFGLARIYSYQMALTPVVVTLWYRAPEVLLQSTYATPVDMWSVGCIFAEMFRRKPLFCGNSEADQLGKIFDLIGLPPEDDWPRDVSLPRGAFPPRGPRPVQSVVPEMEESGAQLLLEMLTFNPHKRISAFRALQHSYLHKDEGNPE
CDK4/cyclin D1, sequence (P24385 whole entry partner, species assumed): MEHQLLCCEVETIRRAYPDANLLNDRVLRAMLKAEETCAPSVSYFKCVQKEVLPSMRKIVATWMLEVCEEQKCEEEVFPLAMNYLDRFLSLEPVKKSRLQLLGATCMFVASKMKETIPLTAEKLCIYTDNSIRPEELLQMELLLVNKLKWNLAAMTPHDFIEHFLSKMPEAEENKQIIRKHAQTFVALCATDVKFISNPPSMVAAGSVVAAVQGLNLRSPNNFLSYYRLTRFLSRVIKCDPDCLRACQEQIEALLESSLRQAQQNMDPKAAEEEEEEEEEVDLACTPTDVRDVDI

[9] = test system: Saos-2; test: 72-h MTT cytotoxicity assay, Saos-2; type: cell-based; settings: Homo sapiens, SAOS-2, read-out: 72-h Cytotoxicity IC 50 Saos-2; Table 3, 72-h MTT
Experimental: as §1

[10] = test system: MCF-7; test: 72-h MTT cytotoxicity assay, MCF-7; type: cell-based; settings: Homo sapiens, MCF7, read-out: 72-h Cytotoxicity IC 50 MCF-7; Table 3, 72-h MTT
Experimental: as §1

[11] = test system: AGS; test: 72-h MTT cytotoxicity assay, AGS; type: cell-based; settings: Homo sapiens, read-out: 72-h Cytotoxicity IC 50 AGS, Table 3, 72-h MTT
Experimental: as §1

[12] = test system: DU145; test: 72-h MTT cytotoxicity assay, DU145; type: cell-based; settings: Homo sapiens, DU-145, read-out: 72-h Cytotoxicity IC 50 DU145; Table 3, 72-h MTT
Experimental: as §1

[13] = test system: HeLa; test: 72-h MTT cytotoxicity assay, HeLa; type: cell-based; settings: Homo sapiens, read-out: 72-h Cytotoxicity IC 50 HeLa, Table 3, 72-h MTT
Experimental: as §1

[14] = test system: A549 cells; test: Mitotic index HitKit (Cellomix); type: cell-based, human; settings: toxicity above this concentration
Excerpt: The effect of compound 28 on the mitotic index was studied using mitotic index HitKit (Cellomix). Vinblastine was used as control in the experiments.
Above this concentration a decrease in the number of mitotic cells is observed which correlates with a decrease in the total number of cells.

[15] = test system: Human osteosarcoma tumour cells (Saos-2); test: Mitotic arrest and apoptosis by phase-contrast microscopy; type: cell-based; settings: Saos-2 cells, 1 μM, 48 h
Experimental: Human osteosarcoma tumour cells (Saos-2) were treated with 1 μM of compound 28 for 48 h. […] Compound 28-induced accumulation of mitotic cells was further quantified using mitotic index HitKit (Cellomix).

[16] = test system: Human lung carcinoma cells (A549); test: Induction of programmed cell death (cytoplasmic vacuolation); type: cell-based; settings: 10 μM, 16 h
Experimental: In addition to the induction of apoptosis some of the compounds of the invention are capable of inducing forms of programmed cell death that is distinct from apoptosis by the criteria of morphology. Human lung carcinoma cells (A549) were treated for 16 h with 10 μM compound 28.

[17] = test system: human tumour cell lines; test: Cell-based assays (anti-proliferative)
Excerpt: These assays including methods for their performance are described in more detail in Example 23. Using such cell line and enzymes assays it may be determined whether a compound is anti-proliferative in the context of the present invention.
as §1

[18] = Table 2, further results for CDK2/cyclin E inhibition, read-out: CDK2/cyclin E
[19] = Table 4, additional data for cytotoxicity assay using the A549 cell line, read-out: A549
[20] = A549, 72 h, read-out: 72-h Cytotoxicity IC 50 A549, Table 3, 72-h MTT

`Cc1nc(C)c(-c2ccnc(Nc3ccc(Br)cc3)n2)s1` [Compound 31, (4-Bromo-phenyl)-{4-(2,4-dimethyl-thiazol-5-yl)-pyrimidin-2-yl}-amine] showed an IC50 [1, 18] of 200 nM, an IC50 [2, 19] of 300 ± 50 nM and a melting point of 173 to 175 °C.

`Cc1nc(C)c(-c2ccnc(Nc3ccc(Cl)cc3)n2)s1` [Compound 6, (4-Chloro-phenyl)-{4-(2,4-dimethyl-thiazol-5-yl)-pyrimidin-2-yl}-amine] gave an IC50 [3] greater than 20000 nM, an IC50 ([1]; CDK2/cyclin E, Table 2, further results for CDK2/cyclin E inhibition) of 5000 ± 9000 nM and an IC50 ([1]; Kinase assay IC50 CDK2/cyclin E, Table 1) of 9000 ± 12000 nM. It also gave an IC50 [4] greater than 20 µM, an IC50 [5] greater than 20 µM and an IC50 [6] greater than 20 µM. It also gave an IC50 [7] greater than 20 µM and an IC50 [8] of 500 ± 500 nM.

Work on `Cc1nc(C)c(-c2ccnc(Nc3ccc(F)cc3)n2)s1` [Compound 21, {4-(2,4-Dimethyl-thiazol-5-yl)-pyrimidin-2-yl}-(4-fluoro-phenyl)-amine] yielded an IC50 [3] of 200 nM, an IC50 [4] of 2.5 µM and an IC50 [5] greater than 20 µM. For the same compound, the IC50 [6] was greater than 20 µM, the IC50 [7] was 1 µM and the IC50 [2, 20] was 5400 ± 400 nM. The IC50 [2, 19] was 6300 nM, the IC50 [9] was 8.5 ± 1.6 µM and the IC50 [10] was 9.9 ± 0.4 µM. The IC50 [11] was 4200 ± 300 nM, the IC50 [12] was 4300 ± 200 nM and the IC50 [13] was 3200 ± 800 nM.

In the case of `Cc1nc(C)c(-c2ccnc(Nc3ccc(C(F)(F)F)cc3)n2)s1` [Compound 28, {4-(2,4-Dimethyl-thiazol-5-yl)-pyrimidin-2-yl}-(4-trifluoromethyl-phenyl)-amine], the IC50 [2, 19] is reported as 3500 nM, the “maximum percentage of mitotic cells” value ([14]; at a concentration of 4.4 μM, untreated wells […]) is reported as 17% and the “mitotic arrest and induction of apoptosis” value [15] is reported as “mitotic arrest and induction of apoptosis; also recorded: accumulation of mitotic cells and appearance of apoptotic cells was observed”. The “induction of programmed cell death, cytoplasmic vaculation” value [16] was “Extensive cytoplasmic vaculation is observed”.

`COCCOC(=O)c1cc(Nc2nccc(-c3sc(C)nc3C)n2)ccc1F` [Compound 98, 5-{4-(2,4-Dimethyl-thiazol-5-yl)-pyrimidin-2-ylamino}-2-fluoro-benzoic acid 2-methoxy-ethyl ester] gave an IC50 [1, 18] of 1100 nM and an IC50 [2, 19] of 2800 ± 2100 nM.

Compound `CNc1nc(C)c(-c2ccnc(Nc3ccc(Br)cc3)n2)s1` [Compound 86, (4-Bromo-phenyl)-{4-(4-methyl-2-methylamino-thiazol-5-yl)-pyrimidin-2-yl}-amine] has an IC50 [1, 18] of 130 nM and an IC50 [2, 19] of 8000 ± 6000 nM.

`Cc1nc(C)c(-c2ccnc(Nc3ccc(I)cc3F)n2)s1` [Compound 94, {4-(2,4-Dimethyl-thiazol-5-yl)-pyrimidin-2-yl}-(2-fluoro-4-iodo-phenyl)-amine] showed an IC50 [1, 18] of 600 nM and an IC50 [2, 19] of 500 ± 600 nM.

For `CNc1nc(C)c(-c2ccnc(Nc3cccc([N+](=O)[O-])c3)n2)s1` [Compound 76, (4-{4-Methyl-2-methylamino-thiazol-5-yl)-pyrimidin-2-yl}-(3-nitro-phenyl)-amine], the IC50 [1, 18] was 800 nM and the IC50 [2, 19] was 3000 ± 900 nM.

Work on `Cc1nc(-c2ccccc2)sc1-c1ccnc(Nc2ccc(O)cc2)n1` [Compound 60, 4-{4-(4-Methyl-2-phenyl-thiazol-5-yl)-pyrimidin-2-ylamino}-phenol] yielded an IC50 [1, 18] of 4000 nM and an IC50 [2, 19] of 2100 ± 300 nM.

In the case of `CNc1nc(C)c(-c2ccnc(Nc3ccc(F)cc3F)n2)s1` [Compound 105, (2,4-Difluoro-phenyl)-{4-(4-methyl-2-methylamino-thiazol-5-yl)-pyrimidin-2-yl}-amine], the IC50 [1, 18] is reported as 2000 nM and the IC50 [2, 19] is reported as 700 ± 900 nM.

In the case of `CC[C@]1(O)C[C@@H]2CN(CCc3c([nH]c4ccccc34)[C@@](C(=O)OC)(c3cc4c(cc3OC)N(C)[C@H]3[C@@](O)(C(=O)OC)[C@H](OC(C)=O)[C@]5(CC)C=CCN6CC[C@]43[C@@H]65)C2)C1` [Vinblastine, reference compound], the “maximum percentage of mitotic cells” value ([14]; at a concentration of 22 nM) is reported as 31%.

Work on `Cc1nc(C)c(-c2ccnc(Nc3cccc([N+](=O)[O-])c3)n2)s1` [Compound 12, {4-(2,4-Dimethyl-thiazol-5-yl)-pyrimidin-2-yl}-(3-nitro-phenyl)-amine] yielded an IC50 [3] of 100 nM, an IC50 [4] greater than 20 µM and an IC50 [5] greater than 20 µM. It also gave an IC50 [6] greater than 20 µM, an IC50 [7] greater than 20 µM and an IC50 [2, 20] of 1500 ± 300 nM. It also gave an IC50 [2, 19] of 200 nM, an IC50 [9] of 1.4 ± 0.3 µM and an IC50 [10] of 1.7 ± 0.1 µM. It also gave an IC50 [11] of 1000 ± 200 nM, an IC50 [12] of 1000 ± 100 nM and an IC50 [13] of 1200 ± 200 nM.

`Cc1nc(C)c(-c2ccnc(Nc3cccc(C#N)c3)n2)s1` [Compound 49, 3-{4-(2,4-Dimethyl-thiazol-5-yl)-pyrimidin-2-ylamino}-benzonitrile] showed an IC50 [1, 18] of 20 nM and an IC50 [2, 19] of 2200 ± 20 nM.

In the case of `Cc1nc(C)c(-c2ccnc(Nc3ccc(I)cc3)n2)s1` [Compound 34, {4-(2,4-Dimethyl-thiazol-5-yl)-pyrimidin-2-yl}-(4-iodo-phenyl)-amine], the IC50 [2, 19] is reported as 20 nM and the “anti-proliferative effect (in words)” value [17] is reported as “even more effective anti-proliferative agent”.

With `Cc1nc(C)c(-c2ccnc(Nc3ccc(C)c(Cl)c3)n2)s1` [Compound 51, (3-Chloro-4-methyl-phenyl)-{4-(2,4-dimethyl-thiazol-5-yl)-pyrimidin-2-yl}-amine] the IC50 [1, 18] was 750 nM and the IC50 [2, 19] was 300 ± 300 nM.

In the case of `CCOC(=O)c1ccc(Nc2nccc(-c3sc(NC)nc3C)n2)cc1Cl` [Compound 74, 2-Chloro-4-{4-(4-methyl-2-methylamino-thiazol-5-yl)-pyrimidin-2-ylamino}-benzoic acid ethyl ester], the IC50 [1, 18] is reported as 100 nM and the IC50 [2, 19] is reported as 18000 ± 4000 nM.

With `COc1ccc(Nc2nccc(-c3sc(C)nc3C)n2)cc1` [Compound 39, {4-(2,4-Dimethyl-thiazol-5-yl)-pyrimidin-2-yl}-(4-methoxy-phenyl)-amine] the IC50 [1, 18] was 220 ± 70 nM and the IC50 [2, 19] was 300 nM.

With `CNc1nc(C)c(-c2ccnc(Nc3ccc(I)cc3)n2)s1` [Compound 72, (4-Iodo-phenyl)-{4-(4-methyl-2-methylamino-thiazol-5-yl)-pyrimidin-2-yl}-amine] the IC50 [1, 18] was 900 nM and the IC50 [2, 19] was 800 ± 500 nM.

Compound `CCNc1nc(C)c(-c2ccnc(Nc3ccc(F)cc3)n2)s1` [Compound 75, {4-(2-Ethylamino-4-methyl-thiazol-5-yl)-pyrimidin-2-yl}-(4-fluoro-phenyl)-amine] has an IC50 [1, 18] of 200 nM and an IC50 [2, 19] of 3200 ± 400 nM.
